Experimental data as given in PubChem BioAssay (NCI).
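Cultured in 96-well plates, cells were exposed to test compound for 48 hours across five concentrations. TGI: concentration producing complete growth inhibition.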

Columns and labels:
Assay in all cases: DTP human tumour cell line panel, 48 h
BT-549 breast = test system: BT-549 breast
KM12 colon = test system: KM12 colon
SNB-78 CNS = test system: SNB-78 CNS
M19-MEL melanoma = test system: M19-MEL melanoma
RXF-631 renal = test system: RXF-631 renal
UACC-257 melanoma = test system: UACC-257 melanoma
HOP-18 NSCLC = test system: HOP-18 NSCLC

`O=C1C[C@H](c2ccccc2)C2(C(=O)c3ccccc3C2=O)[C@@H](c2ccccc2)C1` gave a TGI (BT-549 breast) of 71.9 µM.
Work on `N#CSCC1COc2ccccc2O1` (configuration not stated) yielded a TGI (KM12 colon) of over 10 µM.
For `COc1ccc(C2C(C(=O)O)=C(COC(C)=O)Oc3cc4c(cc32)OCO4)cc1` (configuration not stated), the TGI (SNB-78 CNS) was over 100 µM, the TGI (M19-MEL melanoma) was over 100 µM and the TGI (RXF-631 renal) was over 100 µM. The TGI (UACC-257 melanoma) was over 100 µM and the TGI (HOP-18 NSCLC) was over 100 µM.
